Experimental data taken from US20250041316A1, “METHODS AND COMPOSITIONS FOR TREATING LIVER DISEASE” (Temple University-Of The Commonwealth System of Higher …, priority 2023, published 2025).

How the values were obtained:
[1] = tested on: female mice fed with a Western diet
Experimental: (§1) FIG. 1A depicts a representative illustration of the experimental system used to study the effects of DHT on metabolism. Mice were fed with a Western diet (WD). At 45 days of age, one group of mice were administered DHT via pellet at Week 0 and at Week 4-5 (WD+DHT). One group of WD fed mice were not administered with DHT (WD). Mice were euthanized at Week 8. Ex vivo lipolysis, histology and molecular studies were performed.

[2] = tested on: prolow-density lipoprotein-related protein 1; details: DHT with WD vs WD alone
Experimental: as §1

regucalcin = details: WD+DHT vs WD mice
Experimental: as §1

mice fed with WD = details: WD 8 weeks then DHT 3 weeks under WD vs WD alone 11 weeks; FIG. 5

`C[C@]12CCC(=O)C[C@@H]1CC[C@@H]1[C@@H]2CC[C@]2(C)[C@@H](O)CC[C@@H]12` [DHT, dihydrotestosterone] was tested, and the “brown adipose cell size (histology)” value ([1]; DHT with WD mice) was “enlarged”, the “triglyceride (TG) in circulation” value ([1]; WD+DHT vs WD mice) was “Significantly elevated levels” and the “fat in liver (liver images)” value ([1]; WD+DHT vs WD mice, FIG. 1C) was “lower levels of fat”. The liver triglyceride level ([1]; WD+DHT vs WD mice, FIG. 2A) was “lower levels”, the liver cholesterol level ([1]; WD+DHT vs WD mice, FIG. 2B) was “lower levels” and the “liver lipid deposition (oil red and H&E staining, histology)” value ([1]; WD+DHT vs WD mice, FIG. 4) was “decreased lipid deposition”. The glucose tolerance ([1]; at 3 weeks, DHT with WD vs WD alone, adult female mice) was “more impaired glucose intolerance”, the pyruvate tolerance ([1]; at 6-7 weeks, DHT with WD vs WD alone, adult female mice) was “more impaired pyruvate tolerance” and the “prolow-density lipoprotein-related protein 1 in liver” value [2] was “significantly altered”. For the same compound, the regucalcin in liver (regucalcin) was “significantly altered” and the liver triglyceride (mice fed with WD) was “lower triglyceride”.
